Bridge positions count the residues as written; N and C are the ends. Square brackets hold non-standard residues; d marks the D form. Peptide text beside a SMILES is read from it. * marks the point of attachment. Bip = N[C@@H](Cc1ccc(-c2ccccc2)cc1)C(=O)O; hArg = N=C(N)NCCCC[C@H](N)C(=O)O; Cha = N[C@@H](CC1CCCCC1)C(=O)O; Cit = NC(=O)NCCC[C@H](N)C(=O)O; Carboxymethyl = O=C(O)C*; Orn = NCCC[C@H](N)C(=O)O; Aun = NCCCCCCCCCCC(=O)O; Dab = NCC[C@H](N)C(=O)O; Dap = NC[C@H](N)C(=O)O; AEEA = NCCOCCOCC(=O)O

The target in this experiment is T1, PD-1/PD-L1 interaction (PE-labeled human PD-L1-Ig binding to Jurkat cell line over-expressing human PD-1) (Homo sapiens, UniProt Q15116).
T1 construct: expressed in transfected cells; host or cells: Jurkat
T1 sequence (Q15116 25-288): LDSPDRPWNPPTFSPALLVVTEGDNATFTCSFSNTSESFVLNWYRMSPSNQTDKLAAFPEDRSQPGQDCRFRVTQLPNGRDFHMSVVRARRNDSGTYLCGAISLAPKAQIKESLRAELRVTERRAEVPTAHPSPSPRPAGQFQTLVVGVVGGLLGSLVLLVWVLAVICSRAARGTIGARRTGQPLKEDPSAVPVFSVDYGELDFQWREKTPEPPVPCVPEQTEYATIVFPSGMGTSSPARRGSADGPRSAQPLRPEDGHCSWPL
The experiment can be described thus: Jurkat-PD-1 Cell Binding High-Content Screening Assay (CBA). Format: cell-based. To be noted: Jurkat cell line over-expressing human PD-1; PE-labeled PD-L1-Ig 20 nM final; read-out: Jurkat hPD1-PDL1 IC50. Summed up: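 First, compound is added to PD-1-expressing Jurkat cells in serum-containing DMEM and left 2 h at 37° C. Next, PE-conjugated PD-L1-Ig is introduced at 20 nM final concentration for 1 hour. Finally, cells are fixed in 4% paraformaldehyde with Hoechst 33342, washed and imaged.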
By IC50 is commonly meant the concentration that gives 50% inhibition. Take `CC(C)C[C@H]1NC(=O)[C@H](CCCN)NC(=O)[C@H](C(C)C)NC(=O)[C@H](Cc2ccc(-c3ccccc3)cc2)NC(=O)[C@H](C(C)C)NC(=O)[C@H](Cc2c[nH]c3ccccc23)NC(=O)[C@H](CC(=O)O)NC(=O)[C@H](Cc2ccc(OCC(=O)O)cc2)NC(=O)[C@H](CCCCNC(=N)N)NC(=O)CSC[C@@H](C(=O)N[C@@H](CCN)C(=O)NCCOCCOCC(=O)NCCCCCCCCCCC(=O)O)NC(=O)[C@H](CN)NC(=O)[C@H](C(C)C)NC(=O)[C@H](CC2CCCCC2)NC(=O)[C@H](CC(N)=O)NC1=O` [Compound 3214] ({CH2CO}-[hArg]Y(Carboxymethyl)DWV[Bip]V[Orn][dL]N[Cha]V[Dap]C[Dab][AEEA][Aun]-OH; thioether N-14): the IC50 worked out at 22.8 nM. Regarding `CC(C)C[C@H]1NC(=O)[C@H](CCCN)NC(=O)[C@H](C(C)C)NC(=O)[C@H](Cc2ccc(-c3ccccc3)cc2)NC(=O)[C@H](C(C)C)NC(=O)[C@H](Cc2c[nH]c3ccccc23)NC(=O)[C@H](CC(=O)O)NC(=O)[C@H](Cc2ccc(OCC(=O)O)cc2)NC(=O)[C@H](CCCCNC(=N)N)NC(=O)CSC[C@@H](C(=O)N[C@@H](CCN)C(=O)NCCOCCOCC(=O)NCCCCCCCCCCC(=O)O)NC(=O)[C@H](CCN)NC(=O)[C@H](C(C)C)NC(=O)[C@H](CC2CCCCC2)NC(=O)[C@H](CC(N)=O)NC1=O` [Compound 3215] ({CH2CO}-[hArg]Y(Carboxymethyl)DWV[Bip]V[Orn][dL]N[Cha]V[Dab]C[Dab][AEEA][Aun]-OH; thioether N-14), the IC50 was 25.3 nM. To `CC(C)C[C@H]1NC(=O)[C@H](CCCN)NC(=O)[C@H](C(C)C)NC(=O)[C@H](Cc2ccc(-c3ccccc3)cc2)NC(=O)[C@H](C(C)C)NC(=O)[C@H](Cc2c[nH]c3ccccc23)NC(=O)[C@H](CC(=O)O)NC(=O)[C@H](Cc2ccc(OCC(=O)O)cc2)NC(=O)[C@H](CCCCNC(=N)N)NC(=O)CSC[C@@H](C(=O)N[C@@H](CCN)C(=O)NCCOCCOCC(=O)NCCCCCCCCCCC(=O)O)NC(=O)[C@H](CCCN)NC(=O)[C@H](C(C)C)NC(=O)[C@H](CC2CCCCC2)NC(=O)[C@H](CC(N)=O)NC1=O` [Compound 3216] ({CH2CO}-[hArg]Y(Carboxymethyl)DWV[Bip]V[Orn][dL]N[Cha]V[Orn]C[Dab][AEEA][Aun]-OH; thioether N-14) belongs 35.2 nM. In the case of `CC(C)C[C@H]1NC(=O)[C@H](CCCN)NC(=O)[C@H](C(C)C)NC(=O)[C@H](Cc2ccc(-c3ccccc3)cc2)NC(=O)[C@H](C(C)C)NC(=O)[C@H](Cc2c[nH]c3ccccc23)NC(=O)[C@H](CC(=O)O)NC(=O)[C@H](Cc2ccc(OCC(=O)O)cc2)NC(=O)[C@H](CCCCNC(=N)N)NC(=O)CSC[C@@H](C(=O)N[C@@H](CCN)C(=O)NCCOCCOCC(=O)NCCCCCCCCCCC(=O)O)NC(=O)[C@H](CCCCN)NC(=O)[C@H](C(C)C)NC(=O)[C@H](CC2CCCCC2)NC(=O)[C@H](CC(N)=O)NC1=O` [Compound 3217] ({CH2CO}-[hArg]Y(Carboxymethyl)DWV[Bip]V[Orn][dL]N[Cha]VKC[Dab][AEEA][Aun]-OH; thioether N-14), the IC50 worked out at 17.9 nM.

Take `CC(C)C[C@H]1NC(=O)[C@H](CCCN)NC(=O)[C@H](C(C)C)NC(=O)[C@H](Cc2ccc(-c3ccccc3)cc2)NC(=O)[C@H](C(C)C)NC(=O)[C@H](Cc2c[nH]c3ccccc23)NC(=O)[C@H](CC(=O)O)NC(=O)[C@H](Cc2ccc(OCC(=O)O)cc2)NC(=O)[C@H](CCCCNC(=N)N)NC(=O)CSC[C@@H](C(=O)N[C@@H](CCCNC(N)=O)C(=O)NCCOCCOCC(=O)NCCCCCCCCCCC(=O)O)NC(=O)[C@H](CCCN)NC(=O)[C@H](C(C)C)NC(=O)[C@H](CC2CCCCC2)NC(=O)[C@H](CC(N)=O)NC1=O` [Compound 3218] ({CH2CO}-[hArg]Y(Carboxymethyl)DWV[Bip]V[Orn][dL]N[Cha]V[Orn]C[Cit][AEEA][Aun]-OH; thioether N-14): the IC50 is 26.9 nM.

These data come from US20260022142A1, “MACROCYCLIC IMMUNOMODULATORS” (Bristol-Myers Squibb Company, priority 2022, published 2026).
